From the NIST ThermoML archive (doi:10.1021/je101232g)

Conditions: Liquid

CCCCCCCCCCCCCC[P+](CCCCCC)(CCCCCC)CCCCCC.[Br-] [tetradecyltrihexylphosphonium bromide]
mass density [kg/m3]
Conditions	283.15 K	293.15 K	303.15 K	313.15 K	323.15 K	333.15 K
100 kPa	962.7	956.5	950.3	944.1	937.8	931.7
1000 kPa	963.2	957.1	950.9	944.6	938.4	932.3
2000 kPa	963.7	957.6	951.4	945.3	939	933
3000 kPa	964.2	958.1	952	945.8	939.7	933.6
4000 kPa	964.8	958.7	952.6	946.4	940.3	934.2
5000 kPa	965.3	959.2	953.1	947	941	934.9
10000 kPa	967.9	961.9	955.9	949.8	943.9	938
15000 kPa	970.3	964.5	958.6	952.7	946.8	941
20000 kPa	972.8	967	961.2	955.4	949.7	943.9
25000 kPa	975.3	969.3	963.8	958	952.4	946.8
30000 kPa	977.6	971.8	966.3	960.6	955.1	949.6
35000 kPa	979.8	974.2	968.7	963.2	957.7	952.3
40000 kPa	982	976.5	971	965.5	960.2	954.9
45000 kPa	984.2	978.8	973.4	967.9	962.7	957.3
